Reference: US20230365592A1 (Agios Pharmaceuticals, Inc., priority 2022, published 2023)

target: T1, human PAH with the R408W mutation (Homo sapiens, UniProt P00439, R408W); experiment: Cell Based Phenylalanine Flux Assay; settings: A375 cells expressing human PAH R408W; 24 hrs compound incubation; 13C-Tyrosine by LC-MS; average where tested multiple times; read-out: AC50;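 further: after compound treatment, cells received sepiapterin plus isotope-labelled Phenylalanine for 4 hours, then labelled Tyrosine in the medium was quantified, 10-point 2-fold dilution series run in duplicate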
T1 construct: expressed in transfected cells
T1 sequence (P00439 1-452 R408W): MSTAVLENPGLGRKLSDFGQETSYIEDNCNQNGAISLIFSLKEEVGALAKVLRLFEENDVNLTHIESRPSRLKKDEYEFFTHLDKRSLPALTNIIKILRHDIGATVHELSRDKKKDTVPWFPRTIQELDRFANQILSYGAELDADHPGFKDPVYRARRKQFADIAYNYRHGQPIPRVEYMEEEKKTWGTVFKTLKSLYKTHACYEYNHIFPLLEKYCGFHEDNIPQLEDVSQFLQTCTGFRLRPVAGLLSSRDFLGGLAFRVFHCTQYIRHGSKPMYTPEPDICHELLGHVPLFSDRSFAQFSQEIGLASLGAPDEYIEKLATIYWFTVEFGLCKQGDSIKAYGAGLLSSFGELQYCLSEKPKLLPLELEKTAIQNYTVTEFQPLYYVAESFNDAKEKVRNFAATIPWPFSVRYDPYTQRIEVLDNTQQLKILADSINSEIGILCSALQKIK

AC50 | SMILES
1 to 5 µM | O=C(c1nnc(-c2cnn(C(F)(F)F)c2)o1)N1CCc2[nH]cnc2[C@H]1c1cc2ccccn2n1 [Example 2426, (S)-(4-(pyrazolo[1,5-a]pyridin-2-yl)-6,7-dihydro-1H-imidazo[4,5-c]pyridin-5(4H)-yl)(5-(1-(trifluoromethyl)-1H-pyrazol-4-yl)-1,3,4-oxadiazol-2-yl)methanone]
> 5 µM | O=C(c1nnc(-c2cnn(C(F)(F)F)c2)o1)N1CCc2[nH]cnc2[C@@H]1c1cc2ccccn2n1 [Example 2427, (R)-(4-(pyrazolo[1,5-a]pyridin-2-yl)-6,7-dihydro-1H-imidazo[4,5-c]pyridin-5(4H)-yl)(5-(1-(trifluoromethyl)-1H-pyrazol-4-yl)-1,3,4-oxadiazol-2-yl)methanone]
1 to 5 µM | O=C(c1nnc(-c2cnn(C(F)(F)F)c2)o1)N1CCc2[nH]cnc2[C@@H]1c1cc2cccc(C(F)(F)F)n2n1 [Example 2429, (R)-(5-(1-(trifluoromethyl)-1H-pyrazol-4-yl)-1,3,4-oxadiazol-2-yl)(4-(7-(trifluoromethyl)pyrazolo[1,5-a]pyridin-2-yl)-6,7-dihydro-1H-imidazo[4,5-c]pyridin-5(4H)-yl)methanone]
1 to 5 µM | O=C(c1nnc(C2CCC2)o1)N1CCc2[nH]cnc2[C@H]1c1cc2cccc(C(F)(F)F)n2n1 [Example 2430, (S)-(5-cyclobutyl-1,3,4-oxadiazol-2-yl)(4-(7-(trifluoromethyl)pyrazolo[1,5-a]pyridin-2-yl)-6,7-dihydro-1H-imidazo[4,5-c]pyridin-5(4H)-yl)methanone]
1 to 5 µM | O=C(c1nnc(C2CCC2)o1)N1CCc2[nH]cnc2[C@@H]1c1cc2cccc(C(F)(F)F)n2n1 [Example 2431, (R)-(5-cyclobutyl-1,3,4-oxadiazol-2-yl)(4-(7-(trifluoromethyl)pyrazolo[1,5-a]pyridin-2-yl)-6,7-dihydro-1H-imidazo[4,5-c]pyridin-5(4H)-yl)methanone]
1 to 5 µM | Fc1cccn2nc([C@@H]3c4nc[nH]c4CCN3c3nnc(C4CC4)o3)cc12 [Example 2433, (S)-2-cyclopropyl-5-(4-(4-fluoropyrazolo[1,5-a]pyridin-2-yl)-6,7-dihydro-1H-imidazo[4,5-c]pyridin-5(4H)-yl)-1,3,4-oxadiazole]
1 to 5 µM | Cn1cc(-c2ccc3c(C(=O)N4CCc5[nH]cnc5[C@H]4c4cc5c(F)cccn5n4)cnn3c2)cn1 [Example 2434, (S)-(4-(4-fluoropyrazolo[1,5-a]pyridin-2-yl)-6,7-dihydro-1H-imidazo[4,5-c]pyridin-5(4H)-yl)(6-(1-methyl-1H-pyrazol-4-yl)pyrazolo[1,5-a]pyridin-3-yl)methanone]
> 5 µM | Cn1cc(-c2ccc3c(C(=O)N4CCc5[nH]cnc5[C@@H]4c4cc5c(F)cccn5n4)cnn3c2)cn1 [Example 2435, (R)-(4-(4-fluoropyrazolo[1,5-a]pyridin-2-yl)-6,7-dihydro-1H-imidazo[4,5-c]pyridin-5(4H)-yl)(6-(1-methyl-1H-pyrazol-4-yl)pyrazolo[1,5-a]pyridin-3-yl)methanone]
1 to 5 µM | COCc1ccc2c(C(=O)N3CCc4[nH]cnc4[C@H]3c3cc4c(C)cccn4n3)cnn2c1 [Example 2436, (S)-(6-(methoxymethyl)pyrazolo[1,5-a]pyridin-3-yl)(4-(4-methylpyrazolo[1,5-a]pyridin-2-yl)-6,7-dihydro-1H-imidazo[4,5-c]pyridin-5(4H)-yl)methanone]
> 5 µM | COCc1ccc2c(C(=O)N3CCc4[nH]cnc4[C@@H]3c3cc4c(C)cccn4n3)cnn2c1 [Example 2437, (R)-(6-(methoxymethyl)pyrazolo[1,5-a]pyridin-3-yl)(4-(4-methylpyrazolo[1,5-a]pyridin-2-yl)-6,7-dihydro-1H-imidazo[4,5-c]pyridin-5(4H)-yl)methanone]
1 to 5 µM | Cn1cc(-c2ccc3c(C(=O)N4CCc5[nH]cnc5[C@H]4c4cc5cccc(C(F)(F)F)n5n4)cnn3c2)cn1 [Example 2438, (S)-(6-(1-methyl-1H-pyrazol-4-yl)pyrazolo[1,5-a]pyridin-3-yl)(4-(7-(trifluoromethyl)pyrazolo[1,5-a]pyridin-2-yl)-6,7-dihydro-1H-imidazo[4,5-c]pyridin-5(4H)-yl)methanone]
1 to 5 µM | FC(F)(F)c1cccc2cc([C@@H]3c4nc[nH]c4CCN3c3nnc(-c4ccccn4)o3)nn12 [Example 2440, (S)-2-(pyridin-2-yl)-5-(4-(7-(trifluoromethyl)pyrazolo[1,5-a]pyridin-2-yl)-6,7-dihydro-1H-imidazo[4,5-c]pyridin-5(4H)-yl)-1,3,4-oxadiazole]
1 to 5 µM | Cc1nnc(N2CCc3[nH]cnc3[C@H]2c2cc3c(C)cccn3n2)o1 [Example 2443, (S)-2-methyl-5-(4-(4-methylpyrazolo[1,5-a]pyridin-2-yl)-6,7-dihydro-1H-imidazo[4,5-c]pyridin-5(4H)-yl)-1,3,4-oxadiazole]
1 to 5 µM | Cn1cc(-c2nnc(C(=O)N3CCc4[nH]cnc4[C@H]3c3cc4c(OC(F)F)cccn4n3)o2)cn1 [Example 2445, (S)-(4-(4-(difluoromethoxy)pyrazolo[1,5-a]pyridin-2-yl)-6,7-dihydro-1H-imidazo[4,5-c]pyridin-5(4H)-yl)(5-(1-methyl-1H-pyrazol-4-yl)-1,3,4-oxadiazol-2-yl)methanone]
1 to 5 µM | COc1cccn2nc([C@@H]3c4nc[nH]c4CCN3C(=O)c3nnc(-c4cnn(C(F)F)c4)o3)cc12 [Example 2446, (S)-(5-(1-(difluoromethyl)-1H-pyrazol-4-yl)-1,3,4-oxadiazol-2-yl)(4-(4-methoxypyrazolo[1,5-a]pyridin-2-yl)-6,7-dihydro-1H-imidazo[4,5-c]pyridin-5(4H)-yl)methanone]
> 5 µM | COc1cccn2nc([C@H]3c4nc[nH]c4CCN3C(=O)c3nnc(-c4cnn(C(F)F)c4)o3)cc12 [Example 2447, (R)-(5-(1-(difluoromethyl)-1H-pyrazol-4-yl)-1,3,4-oxadiazol-2-yl)(4-(4-methoxypyrazolo[1,5-a]pyridin-2-yl)-6,7-dihydro-1H-imidazo[4,5-c]pyridin-5(4H)-yl)methanone]
1 to 5 µM | O=C(c1nnc(-c2cnccn2)o1)N1CCc2[nH]cnc2[C@H]1c1cc2c(OC(F)F)cccn2n1 [Example 2448, (S)-(4-(4-(difluoromethoxy)pyrazolo[1,5-a]pyridin-2-yl)-6,7-dihydro-1H-imidazo[4,5-c]pyridin-5(4H)-yl)(5-(pyrazin-2-yl)-1,3,4-oxadiazol-2-yl)methanone]
> 5 µM | O=C(c1nnc(-c2cnccn2)o1)N1CCc2[nH]cnc2[C@@H]1c1cc2c(OC(F)F)cccn2n1 [Example 2449, (R)-(4-(4-(difluoromethoxy)pyrazolo[1,5-a]pyridin-2-yl)-6,7-dihydro-1H-imidazo[4,5-c]pyridin-5(4H)-yl)(5-(pyrazin-2-yl)-1,3,4-oxadiazol-2-yl)methanone]
1 to 5 µM | COc1ccc2c(C(=O)N3CCc4[nH]cnc4[C@H]3c3cc4c(C)cccn4n3)cnn2c1 [Example 2450, (S)-(6-methoxypyrazolo[1,5-a]pyridin-3-yl)(4-(4-methylpyrazolo[1,5-a]pyridin-2-yl)-6,7-dihydro-1H-imidazo[4,5-c]pyridin-5(4H)-yl)methanone]
> 5 µM | COc1ccc2c(C(=O)N3CCc4[nH]cnc4[C@@H]3c3cc4c(C)cccn4n3)cnn2c1 [Example 2451, (R)-(6-methoxypyrazolo[1,5-a]pyridin-3-yl)(4-(4-methylpyrazolo[1,5-a]pyridin-2-yl)-6,7-dihydro-1H-imidazo[4,5-c]pyridin-5(4H)-yl)methanone]
1 to 5 µM | O=C(c1cnn2cc(-c3ccccn3)ccc12)N1CCc2[nH]cnc2[C@H]1c1cc2cccc(C(F)(F)F)n2n1 [Example 2452, (S)-(6-(pyridin-2-yl)pyrazolo[1,5-a]pyridin-3-yl)(4-(7-(trifluoromethyl)pyrazolo[1,5-a]pyridin-2-yl)-6,7-dihydro-1H-imidazo[4,5-c]pyridin-5(4H)-yl)methanone]
1 to 5 µM | Clc1cccc2cc([C@@H]3c4nc[nH]c4CCN3c3ncccn3)nn12 [Example 2454, (S)-4-(7-chloropyrazolo[1,5-a]pyridin-2-yl)-5-(pyrimidin-2-yl)-4,5,6,7-tetrahydro-1H-imidazo[4,5-c]pyridine]
1 to 5 µM | Clc1cccc2cc([C@H]3c4nc[nH]c4CCN3c3ncccn3)nn12 [Example 2455, (R)-4-(7-chloropyrazolo[1,5-a]pyridin-2-yl)-5-(pyrimidin-2-yl)-4,5,6,7-tetrahydro-1H-imidazo[4,5-c]pyridine]
1 to 5 µM | Cc1nnc(N2CCc3[nH]cnc3[C@H]2c2cc3c(Cl)cccn3n2)o1 [Example 2456, (S)-2-(4-(4-chloropyrazolo[1,5-a]pyridin-2-yl)-6,7-dihydro-1H-imidazo[4,5-c]pyridin-5(4H)-yl)-5-methyl-1,3,4-oxadiazole]
1 to 5 µM | O=C(c1nnc(-c2cnn(C(F)(F)F)c2)o1)N1CCc2[nH]cnc2[C@H]1c1cc2c(OC(F)F)cccn2n1 [Example 2458, (S)-(4-(4-(difluoromethoxy)pyrazolo[1,5-a]pyridin-2-yl)-6,7-dihydro-1H-imidazo[4,5-c]pyridin-5(4H)-yl)(5-(1-(trifluoromethyl)-1H-pyrazol-4-yl)-1,3,4-oxadiazol-2-yl)methanone]
1 to 5 µM | FC(F)c1nnc(N2CCc3[nH]cnc3[C@H]2c2cc3ccccn3n2)o1 [Example 2461, (S)-2-(difluoromethyl)-5-(4-(pyrazolo[1,5-a]pyridin-2-yl)-6,7-dihydro-1H-imidazo[4,5-c]pyridin-5(4H)-yl)-1,3,4-oxadiazole]
